Measurements as given in US20120302503A1, “PEPTIDES FOR PREVENTING OR TREATING A DISEASE OR DISORDER ASSOCIATED WITH CBP OR p300 MISREGULATION, AND METHODS FOR USE AND IDENTIFICATION THEREOF” (AML Therapeutics, LLC, priority 2011, published 2012).
Read-outs that look alike come from different tables or passages of the source. Square brackets hold non-standard residues; d marks the D form. Peptide text beside a SMILES is read from it. d(pS) = N[C@H](COP(=O)(O)O)C(=O)O; pS = N[C@@H](COP(=O)(O)O)C(=O)O; dNle = CCCC[C@@H](N)C(=O)O

System: THP-1 cell line
Experiment: Cell proliferation assay (Promega Cell Titer-Glo) using cell line THP-1
Assay type: cell-based
Method: To determine the in vitro IC50 of two peptides, and a positive control, cisplatin, against the THP-1 cell line, cell growth is determined using Promega's Cell Titer-Glo® assay. THP-1 tumor cells are placed in a 96-well microculture plate (Costar white, flat bottom #3917) at 20,000 cells per well, in a total volume of 90 μL/well. After 24 hours of incubation in a humidified incubator at 37 C with 5% CO2 and 95% air, 10 μL of 10×, serially diluted test agents in growth medium are added to each well. […] 100 μL of Cell Titer-Glo® reagent are added to each well. The plate is shaken for 2 minutes and then left to equilibrate for 10 minutes before determining luminescence on a Tecan GENios microplate reader. Percent inhibition of cell growth is calculated relative to untreated control wells. All tests are performed in duplicate at each concentration level. The IC50 value for the test agents is estimated using Prism 3.03 by curve-fitting the data using the following four parameter-logistic equation: where Top is the maximal % of control absorbance, Bottom is the minimal % of control absorbance at the highest agent concentration, Y is the % of control absorbance, X is the agent concentration, IC50 is the concentration of agent that inhibits cell growth by 50% compared to the control cells, and n is the slope of the curve.

Row | IC50 (24 h) [µM] | Compound | IC50 (THP-1 tumor cells, 96 total hours of culture, Cell Titer-Glo luminescence, Table 1, read-out: IC50 values) [µM] | IC50 (THP-1 tumor cells, 96 total hours of culture, Cell Titer-Glo luminescence, Table 2, read-out: IC50 values) [µM]
1 | 14.1 | CCCC[C@@H](NC(=O)[C@@H](CCSC)NC(=O)[C@@H](CO)NC(=O)[C@H](NC(=O)[C@@H](CCC(=O)O)NC(=O)[C@@H](CC(N)=O)NC(=O)[C@@H](CCC(=O)O)NC(=O)[C@@H](CC(C)C)NC(=O)CNC(=O)[C@@H](CCCNC(=N)N)NC(=O)[C@@H](CCCNC(=N)N)NC(=O)[C@@H](CCCNC(=N)N)NC(=O)[C@@H](CCCNC(=N)N)NC(=O)[C@@H](CCCNC(=N)N)NC(=O)[C@@H](CCCNC(=N)N)NC(=O)[C@@H](CCCNC(=N)N)NC(=O)[C@@H](CCCNC(=N)N)NC(=O)[C@H](N)CCCNC(=N)N)[C@H](C)O)C(=O)N[C@H](CC(=O)O)C(=O)N[C@H](CC(N)=O)C(=O)N[C@H](CC(C)C)C(=O)N[C@@H](C(=O)N[C@H](CCCCN)C(=O)N[C@H](CCCNC(=N)N)C(=O)N[C@H](Cc1ccc(O)cc1)C(=O)N[C@@H](COP(=O)(O)O)C(=O)NCC(N)=O)[C@H](C)CC [SEQ ID NO: 15, dR dR dR dR dR dR dR dR dR G dL dE dN dE dT dS dM dNIe dD dN dL dI dK dR dY pS G amide] (H-[dR][dR][dR][dR][dR][dR][dR][dR][dR]G[dL][dE][dN][dE][dT][dS][dM][dNle][dD][dN][dL][dI][dK][dR][dY][pS]G-NH2; N-terminus assumed) | – | –
2 | – | N.N.[Cl][Pt][Cl] [Cisplatin, cisplatin, reference compound] | 1.6 | 1.6
3 | 17.5 | CC[C@@H](C)[C@@H](NC(=O)[C@@H](CC(C)C)NC(=O)[C@@H](CC(N)=O)NC(=O)[C@@H](CC(=O)O)NC(=O)[C@@H](CC(C)C)NC(=O)[C@@H](CCSC)NC(=O)[C@@H](CO)NC(=O)[C@H](NC(=O)[C@@H](CCC(=O)O)NC(=O)[C@@H](CC(N)=O)NC(=O)[C@@H](CCC(=O)O)NC(=O)[C@@H](CC(C)C)NC(=O)CNC(=O)[C@@H](CCCNC(=N)N)NC(=O)[C@@H](CCCNC(=N)N)NC(=O)[C@@H](CCCNC(=N)N)NC(=O)[C@@H](CCCNC(=N)N)NC(=O)[C@@H](CCCNC(=N)N)NC(=O)[C@@H](CCCNC(=N)N)NC(=O)[C@@H](CCCNC(=N)N)NC(=O)[C@@H](CCCNC(=N)N)NC(=O)[C@H](N)CCCNC(=N)N)[C@H](C)O)C(=O)N[C@H](CCCCN)C(=O)N[C@H](CCCNC(=N)N)C(=O)N[C@H](Cc1ccc(O)cc1)C(=O)N[C@H](COP(=O)(O)O)C(=O)NCC(N)=O [SEQ ID NO: 13, dR dR dR dR dR dR dR dR dR G dL dE dN dE dT dS dM dL dD dN dL dI dK dR dY dpS G amide] (H-[dR][dR][dR][dR][dR][dR][dR][dR][dR]G[dL][dE][dN][dE][dT][dS][dM][dL][dD][dN][dL][dI][dK][dR][dY][d(pS)]G-NH2; N-terminus assumed) | – | –
4 | 13.9 | CC[C@@H](C)[C@@H](NC(=O)[C@@H](CC(C)C)NC(=O)[C@@H](CC(N)=O)NC(=O)[C@@H](CC(=O)O)NC(=O)[C@@H](CC(C)C)NC(=O)[C@@H](CCSC)NC(=O)[C@@H](CO)NC(=O)[C@H](NC(=O)[C@@H](CCC(=O)O)NC(=O)[C@@H](CC(N)=O)NC(=O)[C@@H](CCC(=O)O)NC(=O)[C@@H](CC(C)C)NC(=O)CNC(=O)[C@@H](CCCNC(=N)N)NC(=O)[C@@H](CCCNC(=N)N)NC(=O)[C@@H](CCCNC(=N)N)NC(=O)[C@@H](CCCNC(=N)N)NC(=O)[C@@H](CCCNC(=N)N)NC(=O)[C@@H](CCCNC(=N)N)NC(=O)[C@@H](CCCNC(=N)N)NC(=O)[C@@H](CCCNC(=N)N)NC(=O)[C@H](N)CCCNC(=N)N)[C@H](C)O)C(=O)N[C@H](CCCCN)C(=O)N[C@H](CCCNC(=N)N)C(=O)N[C@H](Cc1ccc(O)cc1)C(=O)N[C@@H](COP(=O)(O)O)C(=O)NCC(N)=O [SEQ ID NO: 14, dR dR dR dR dR dR dR dR dR G dL dE dN dE dT dS dM dL dD dN dL dI dK dR dY pS G amide] (H-[dR][dR][dR][dR][dR][dR][dR][dR][dR]G[dL][dE][dN][dE][dT][dS][dM][dL][dD][dN][dL][dI][dK][dR][dY][pS]G-NH2; N-terminus assumed) | – | –
5 | 21.6 | CC[C@@H](C)[C@@H](NC(=O)[C@@H](CCCCN)NC(=O)[C@@H](CCC(=O)O)NC(=O)[C@@H](CC(C)C)NC(=O)[C@@H](CCC(=O)O)NC(=O)[C@@H](CC(C)C)NC(=O)[C@@H](CC(C)C)NC(=O)[C@@H](CC(C)C)NC(=O)[C@@H](CCSC)NC(=O)[C@@H](CO)NC(=O)[C@H](NC(=O)[C@@H](CCC(=O)O)NC(=O)[C@@H](CC(N)=O)NC(=O)[C@@H](CCC(=O)O)NC(=O)[C@@H](CC(C)C)NC(=O)CNC(=O)[C@@H](Cc1ccc(O)cc1)NC(=O)CNC(=O)[C@@H](CCCNC(=N)N)NC(=O)[C@@H](CCCCN)NC(=O)[C@@H](CCCCN)NC(=O)[C@@H](CCCNC(=N)N)NC(=O)[C@@H](CCCNC(=N)N)NC(=O)[C@@H](CCC(N)=O)NC(=O)[C@@H](CCCNC(=N)N)NC(=O)[C@@H](CCCNC(=N)N)NC(=O)[C@H](N)CCCNC(=N)N)[C@H](C)O)C(=O)N[C@H](CCCNC(=N)N)C(N)=O [SEQ ID NO: 16, dR dR dR dQ dR dR dK dK dR G dY G dL dE dN dE dT dS dM dL dL dL dE dL dE dK dI dR amide] (H-[dR][dR][dR][dQ][dR][dR][dK][dK][dR]G[dY]G[dL][dE][dN][dE][dT][dS][dM][dL][dL][dL][dE][dL][dE][dK][dI][dR]-NH2; N-terminus assumed) | – | –
